The values that follow come from patent US12077503B2, “Substituted cyclic amides and their use as herbicides” (FMC CORPORATION, priority 2015, dated 2024).

Common to all, as to assay: Test A preemergence
Holding throughout (format): in vivo

In test [1] the test system is pigweed (Amaranthus retroflexus). Conditions: Amaranthus retroflexus, pre-emergence, 240 h; for pest or weed control at 125 g/ha: 125 g ai/ha; for pest or weed control at 31 g/ha: 31 g ai/ha, 0 to 100 scale (0 no effect, 100 complete control); for pest or weed control at 500 g/ha: 500 g ai/ha.
Test [2] deals with giant foxtail (Setaria faberii). The settings on record: Setaria faberi, pre-emergence, 240 h; for pest or weed control at 125 g/ha: 125 g ai/ha; for pest or weed control at 31 g/ha: 31 g ai/ha, 0 to 100 scale (0 no effect, 100 complete control); for pest or weed control at 500 g/ha: 500 g ai/ha. The method, boiled down: (§1)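 Each rating is a visual injury score from 0 to 100 given about 10 d after treatment, judged against untreated controls kept alongside in the greenhouse. In loam soil–sand blend, seeds got a preemergence directed soil spray, while postemergence plants were 2 to 10 cm tall at spraying.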

The test system of test [3] is barnyardgrass (Echinochloa crus-galli). Conditions: Echinochloa crus-galli, pre-emergence, 240 h; for pest or weed control at 125 g/ha: 125 g ai/ha; for pest or weed control at 31 g/ha: 31 g ai/ha; for pest or weed control at 500 g/ha: 500 g ai/ha. The method, boiled down:
as §1

The test system of test [4] is ryegrass, Italian (Italian ryegrass, Lolium multiflorum). Conditions: Lolium multiflorum, pre-emergence, 240 h; for pest or weed control at 125 g/ha: 125 g ai/ha; for pest or weed control at 31 g/ha: 31 g ai/ha, 0 to 100 scale (0 no effect, 100 complete control); for pest or weed control at 500 g/ha: 500 g ai/ha. An outline of the steps: as §1
Another test deals with Kochia (Kochia scoparia). Conditions: Bassia scoparia, pre-emergence, 240 h; for pest or weed control at 125 g/ha: 125 g ai/ha; for pest or weed control at 31 g/ha: 31 g ai/ha, 0 to 100 scale (0 no effect, 100 complete control); for pest or weed control at 500 g/ha: 500 g ai/ha. The method, boiled down:
as §1

Test [5] concerns ragweed (common ragweed, Ambrosia elatior). Conditions: Ambrosia artemisiifolia, pre-emergence, 240 h; for pest or weed control at 125 g/ha: 125 g ai/ha; for pest or weed control at 31 g/ha: 31 g ai/ha, 0 to 100 scale (0 no effect, 100 complete control); for pest or weed control at 500 g/ha: 500 g ai/ha. An outline of the steps:
as §1

The mark [6] stands for this setting: preemergence, visual rating after approx. 10 d, 0 to 100 scale where 0 is no effect and 100 is complete control, read-out: Plant response rating, Pigweed.
[7] abbreviates: Preemergence, read-out: Plant response rating, Pigweed.
The mark [8] stands for this setting: preemergence, visual rating after approx. 10 d, 0 to 100 scale where 0 is no effect and 100 is complete control, read-out: Plant response rating, Foxtail, Giant.
Setting [9] is: Preemergence, read-out: Plant response rating, Foxtail, Giant.
Where [10] appears, read: preemergence, visual rating after approx. 10 d, 0 to 100 scale where 0 is no effect and 100 is complete control, read-out: Plant response rating, Barnyardgrass.
Setting [11] is: Preemergence, 0 to 100 scale (0 no effect, 100 complete control), read-out: Plant response rating, Barnyardgrass.
Where [12] appears, read: preemergence, visual rating after approx. 10 d, 0 to 100 scale where 0 is no effect and 100 is complete control, read-out: Plant response rating, Ryegrass, Italian.
The mark [13] stands for this setting: Preemergence, read-out: Plant response rating, Ryegrass, Italian.
Where [14] appears, read: preemergence, visual rating after approx. 10 d, 0 to 100 scale where 0 is no effect and 100 is complete control, read-out: Plant response rating, Kochia.
The mark [15] stands for this setting: Preemergence, read-out: Plant response rating, Kochia.
The mark [16] stands for this setting: preemergence, visual rating after approx. 10 d, 0 to 100 scale where 0 is no effect and 100 is complete control, read-out: Plant response rating, Ragweed.
The mark [17] stands for this setting: Preemergence, read-out: Plant response rating, Ragweed.
[18] abbreviates: preemergence, 0 to 100 scale where 0 is no effect and 100 is complete control, read-out: Pigweed plant response rating.
Setting [19] is: preemergence, 0 to 100 scale where 0 is no effect and 100 is complete control, read-out: Foxtail, Giant plant response rating.
[20] abbreviates: preemergence, 0 to 100 scale where 0 is no effect and 100 is complete control, read-out: Ryegrass, Italian plant response rating.
The mark [21] stands for this setting: preemergence, 0 to 100 scale where 0 is no effect and 100 is complete control, read-out: Kochia plant response rating.
[22] abbreviates: preemergence, 0 to 100 scale where 0 is no effect and 100 is complete control, read-out: Ragweed plant response rating.

The structures appear in SMILES notation. Read-outs that look alike come from different tables or passages of the source.

For `CN1CC[C@H](c2ccc3c(c2)OC(F)(F)O3)[C@@H](C(=O)Nc2ccccc2C(F)(F)F)C1=O` [Compound 811], the pest or weed control at 125 g/ha in test [1] (setting [6]) amounted to 0%; in test [2] (setting [8]) it was 40%; in test [3] (setting [10]) it was 40%; in test [4] (setting [12]), 0%; with Kochia (Kochia scoparia) (setting [14]), 0%; in test [5] (setting [16]), 0%. The pest or weed control at 31 g/ha (in test [1] (setting [7]); in test [2] (setting [9]); in test [3] (setting [11]); in test [4] (setting [13]); with Kochia (Kochia scoparia) (setting [15]); in test [5] (setting [17])) was 0% throughout.

Take `CN1CC[C@H](c2ccc3c(c2)OC(F)(F)O3)[C@@H](C(=O)Nc2cccc(F)c2F)C1=O` [Compound 812]: the pest or weed control at 125 g/ha in test [1] (setting [6]) turned out to be 0%; in test [2] (setting [8]), 90%; in test [3] (setting [10]), 90%; in test [4] (setting [12]), 20%; in the test on Kochia (Kochia scoparia) (setting [14]), 0%; in test [5] (setting [16]), 0%. Also, the pest or weed control at 31 g/ha in test [1] (setting [7]) amounted to 0%; in test [2] (setting [9]), 80%; in test [3] (setting [11]) it was 70%; in test [4] (setting [13]) it was 0%; with Kochia (Kochia scoparia) (setting [15]), 0%; in test [5] (setting [17]), 0%.

Regarding `CN1CC[C@H](c2ccc3c(c2)OC(F)(F)O3)[C@@H](C(=O)Nc2ccc(F)c(F)c2F)C1=O` [Compound 813], the pest or weed control at 125 g/ha amounted to 0% in test [1] (setting [6]); 90% in test [2] (setting [8]); 80% in test [3] (setting [10]); 20% in test [4] (setting [12]); 0% in the test with Kochia (Kochia scoparia) (setting [14]); 0% in test [5] (setting [16]). Moreover, the pest or weed control at 31 g/ha amounted to 0% in test [1] (setting [7]); 70% in test [2] (setting [9]); 20% in test [3] (setting [11]); 0% in test [4] (setting [13]); 0% in the test on Kochia (Kochia scoparia) (setting [15]); 0% in test [5] (setting [17]).

Take `CN1C[C@H](c2cccc(C3CC3)c2)[C@@H](C(=O)Nc2ccccc2F)C1=O` [Compound 815]: the pest or weed control at 125 g/ha in test [1] (setting [6]) amounted to 30%; in test [2] (setting [8]) it was 90%; in test [3] (setting [10]), 90%; in test [4] (setting [12]) it was 80%; with Kochia (Kochia scoparia) (setting [14]), 70%; in test [5] (setting [16]) it was 0%. Moreover, the pest or weed control at 500 g/ha in test [1] (Preemergence, visual injury vs untreated controls after approximately 10 d, read-out: Pigweed plant response rating (0 to 100 scale where 0 is no effect and 100 is complete control)) came out at 50%; in test [2] (Preemergence, visual injury vs untreated controls after approximately 10 d, read-out: Foxtail, Giant plant response rating (0 to 100 scale where 0 is no effect and 100 is complete control)) it was 100%; in test [3] (Preemergence, visual injury vs untreated controls after approximately 10 d, read-out: Barnyardgrass plant response rating (0 to 100 scale where 0 is no effect and 100 is complete control)), 100%; in test [4] (Preemergence, visual injury vs untreated controls after approximately 10 d, read-out: Ryegrass, Italian plant response rating (0 to 100 scale where 0 is no effect and 100 is complete control)), 80%; with Kochia (Kochia scoparia) (Preemergence, visual injury vs untreated controls after approximately 10 d, read-out: Kochia plant response rating (0 to 100 scale where 0 is no effect and 100 is complete control)), 80%; in test [5] (Preemergence, visual injury vs untreated controls after approximately 10 d, read-out: Ragweed plant response rating (0 to 100 scale where 0 is no effect and 100 is complete control)), 0%.

Consider `CN1C[C@H](c2csc3ccccc23)[C@@H](C(=O)Nc2ccccc2F)C1=O` [Compound 1114], for which the pest or weed control at 125 g/ha in test [1] (preemergence, 0 to 100 scale where 0 is no effect and 100 is complete control, approx. 10 d, read-out: Pigweed plant response rating) was 0%; in test [2] (preemergence, 0 to 100 scale where 0 is no effect and 100 is complete control, approx. 10 d, read-out: Foxtail, Giant plant response rating), 90%; in test [3] (preemergence, 0 to 100 scale where 0 is no effect and 100 is complete control, approx. 10 d, read-out: Barnyardgrass plant response rating), 90%; in test [4] (preemergence, 0 to 100 scale where 0 is no effect and 100 is complete control, approx. 10 d, read-out: Ryegrass, Italian plant response rating), 0%; in test [5] (preemergence, 0 to 100 scale where 0 is no effect and 100 is complete control, approx. 10 d, read-out: Ragweed plant response rating), 0%. Further, the pest or weed control at 500 g/ha was determined as 0% in test [1] (setting [18]); 90% in test [2] (setting [19]); 90% in test [3] (preemergence, visual injury rating about 10 d after treatment, 0 to 100 scale (0 no effect, 100 complete control), read-out: Barnyardgrass plant response rating); 20% in test [4] (setting [20]); 60% in the test on Kochia (Kochia scoparia) (setting [21]); 0% in test [5] (setting [22]).

As for `CSc1ccccc1NC(=O)[C@H]1C(=O)N(C)CC[C@@H]1c1ccc(C(F)(F)F)cc1` [Compound 1227], the pest or weed control at 125 g/ha in test [1] (preemergence, visual injury rating, 0 to 100 scale where 0 is no effect and 100 is complete control, approximately 10 d, read-out: Pigweed plant response rating) stood at 30%; in test [2] (preemergence, visual injury rating, 0 to 100 scale where 0 is no effect and 100 is complete control, approximately 10 d, read-out: Foxtail, Giant plant response rating), 50%; in test [3] (preemergence, visual injury rating, 0 to 100 scale where 0 is no effect and 100 is complete control, approximately 10 d, read-out: Barnyardgrass plant response rating), 0%; in test [4] (preemergence, visual injury rating, 0 to 100 scale where 0 is no effect and 100 is complete control, approximately 10 d, read-out: Ryegrass, Italian plant response rating), 20%; with Kochia (Kochia scoparia) (preemergence, visual injury rating, 0 to 100 scale where 0 is no effect and 100 is complete control, approximately 10 d, read-out: Kochia plant response rating), 0%; in test [5] (preemergence, visual injury rating, 0 to 100 scale where 0 is no effect and 100 is complete control, approximately 10 d, read-out: Ragweed plant response rating), 0%. Moreover, the pest or weed control at 500 g/ha was 60% in test [1] (setting [18]); 90% in test [2] (setting [19]); 40% in test [3] (preemergence, 0 to 100 scale where 0 is no effect and 100 is complete control, read-out: Barnyardgrass plant response rating); 70% in test [4] (setting [20]); 0% in the test with Kochia (Kochia scoparia) (setting [21]); 0% in test [5] (setting [22]).
